From ChEMBL document CHEMBL4251646, “Improved antibacterial activity of a marine peptide-N2 against intracellular Salmonella typhimurium by conjugating with cell-penetrating peptides-bLFcin6/Tat11” (Eur J Med Chem, 2018)
Converted amounts (≈) assume the structure as drawn. Values belong to the molecule of their own block, whether it stands above or below them. The source made the active and inactive calls. The calls are words filed in the database; no cut-off is given here.

Columns and labels:
Salmonella typhimurium [1] = test: Bactericidal activity against Salmonella typhimurium ATCC 14028 infected in mouse RAW264.7 cells assessed as log reduction in intracellular bacterial load at 5 uM after 10 hrs in presence of gentamycin; format: functional, Salmonella enterica subsp. enterica serovar Typhimurium
Salmonella typhimurium [2] = test: Bactericidal activity against Salmonella typhimurium ATCC 14028 at 0.03125 to 4 times MIC after 24 hrs by dose-kill assay; format: functional, organism-based; conditions: Salmonella enterica subsp. enterica serovar Typhimurium
Salmonella typhimurium [3] = test: Bactericidal activity against Salmonella typhimurium ATCC 14028 at 10 uM within 3 to 9 hrs; format: functional, Salmonella enterica subsp. enterica serovar Typhimurium
Salmonella typhimurium [4] = test: Antibacterial activity against Salmonella typhimurium ATCC 14028 at pH 7 after 16 to 18 hrs by broth microdilution method; format: functional, Salmonella enterica subsp. enterica serovar Typhimurium; conditions: Salmonella enterica
Salmonella typhimurium [5] = test: Bactericidal activity against Salmonella typhimurium ATCC 14028 infected in mouse RAW264.7 cells assessed as log reduction in intracellular bacterial load at 10 uM after 10 hrs in presence of gentamycin; format: functional, Salmonella enterica subsp. enterica serovar Typhimurium
Salmonella typhimurium [6] = test: Antibacterial activity against Salmonella typhimurium ATCC 14028 assessed as survival at 10 uM after 3 hrs by broth microdilution method; format: functional, Salmonella enterica subsp. enterica serovar Typhimurium
Salmonella typhimurium [7] = test: Bactericidal activity against Salmonella typhimurium ATCC 14028 at 0.125 to 1 times MIC after 24 hrs by dose-kill assay; format: functional, organism-based; conditions: Salmonella enterica subsp. enterica serovar Typhimurium
Salmonella typhimurium [8] = test: Bactericidal activity against Salmonella typhimurium ATCC 14028 at 10 uM up to 9 hrs; format: functional, organism-based; conditions: Salmonella enterica subsp. enterica serovar Typhimurium
Salmonella typhimurium [9] = test: Antibacterial activity against Salmonella typhimurium ATCC 14028 at pH 5 after 16 to 18 hrs by broth microdilution method; format: functional, Salmonella enterica subsp. enterica serovar Typhimurium; conditions: Salmonella enterica
Salmonella typhimurium [10] = test: Bactericidal activity against Salmonella typhimurium ATCC 14028 at MIC up to 6 hrs by time-kill assay; format: functional, organism-based; conditions: Salmonella enterica subsp. enterica serovar Typhimurium
Salmonella typhimurium [11] = test: Bactericidal activity against Salmonella typhimurium ATCC 14028 at 1 to 2 times MIC after 2 hrs by time-kill assay; format: functional, organism-based; conditions: Salmonella enterica subsp. enterica serovar Typhimurium
[12] = Drug internalization in mouse RAW264.7 cells at 1 uM using FITC-labeled test compound after 0.5 hrs by flow cytometry; format: ADME, cell-based; conditions: raw264.7, 0.5 h
[13] = Cytotoxicity against mouse RAW264.7 cells assessed as cell survival at 100 uM after 8 hrs by MTT assay; format: cell-based; conditions: read-out: Survival
[14] = Drug uptake in mouse RAW264.7 cells at 2 uM using FITC-labeled test compound at 4 degC after 2 hrs in presence of clathrin-mediated endocytosis inhibitor chlorpromazine by trypan blue staining-based flow cytometry; format: ADME, cell-based; conditions: raw264.7, 2 h
[15] = Drug internalization in mouse RAW264.7 cells at 1 uM using FITC-labeled test compound after 2 hrs by flow cytometry; format: ADME, cell-based; conditions: raw264.7, 2 h
[16] = Drug uptake in mouse RAW264.7 cells at 2 uM using FITC-labeled test compound at 4 degC after 2 hrs in presence of macropinocytosis inhibitor amiloride by trypan blue staining-based flow cytometry; format: ADME, cell-based; conditions: raw264.7, 2 h
[17] = Drug uptake in mouse RAW264.7 cells at 5 uM using FITC-labeled test compound after 2 hrs by flow cytometry; format: ADME, cell-based; conditions: raw264.7, 2 h
[18] = Drug uptake in mouse RAW264.7 cells at 2 uM using FITC-labeled test compound at 4 degC after 2 hrs in presence of lipid raft disruptor MbetaCD by trypan blue staining-based flow cytometry; format: ADME, cell-based; conditions: raw264.7, 2 h
[19] = Drug uptake in cytosol of mouse RAW264.7 cells at 5 uM using FITC-labeled test compound after 5 hrs by Hoechst 33342/FM 4-64 staining-based confocal microscopic analysis; format: ADME, subcellular
[20] = Drug uptake in mouse RAW264.7 cells at 0.5 uM using FITC-labeled test compound at 4 degC after 2 hrs by flow cytometry; format: ADME, cell-based; conditions: raw264.7, 2 h
[21] = Drug uptake in mouse RAW264.7 cells at 2 uM using FITC-labeled test compound after 2 hrs at 4 degC in presence of microtubule polymerization inhibitor nocodazole by trypan blue staining-based flow cytometry; format: ADME, cell-based; conditions: raw264.7, 2 h
[22] = Drug internalization in mouse RAW264.7 cells using FITC-labeled test compound by flow cytometry; format: ADME, cell-based
[23] = Drug uptake in mouse RAW264.7 cells at 5 uM using FITC-labeled test compound after 0.5 hrs by flow cytometry; format: ADME, cell-based; conditions: raw264.7, 0.5 h

Molecule: O=C(O)c1cn(C2CC2)c2cc(N3CCNCC3)c(F)cc2c1=O [CIPROFLOXACIN]
- log(activity) (Salmonella typhimurium [1]): 2.67
- Activity (Salmonella typhimurium [2]): Active
- Activity (Salmonella typhimurium [3]): 98.11 - 99.99%
- MIC (Salmonella typhimurium [4]): 0.05 µM (≈ 0.0166 µg/mL)
- log(activity) (Salmonella typhimurium [5]): 3.26
- Survival (Salmonella typhimurium [6]): 5.5 ×10³ CFU/ml

Molecule: N=C(N)NCCC[C@H](NC(=O)[C@H](CCCNC(=N)N)NC(=O)[C@H](CCCNC(=N)N)NC(=O)[C@H](CCC(N)=O)NC(=O)[C@H](CCCNC(=N)N)NC(=O)[C@H](CCCNC(=N)N)NC(=O)[C@H](CCCCN)NC(=O)[C@H](CCCCN)NC(=O)[C@H](CCCNC(=N)N)NC(=O)CNC(=O)[C@@H](N)Cc1ccc(O)cc1)C(=O)O
- MIC (Salmonella typhimurium [4]): > 80 µM

Molecule: CC(C)[C@@H]1NC(=O)[C@H](C)NC(=O)[C@H](CC(N)=O)NC(=O)[C@H](CCCNC(=N)N)NC(=O)[C@H](Cc2ccc(O)cc2)NC(=O)[C@H](C(C)C)NC(=O)[C@@H]2CSSC[C@H](NC(=O)[C@H](C(C)C)NC(=O)[C@H](CCCNC(=N)N)NC1=O)C(=O)N[C@@H](Cc1cnc[nH]1)C(=O)N[C@@H](CCCNC(=N)N)C(=O)N[C@@H](CCCNC(=N)N)C(=O)N[C@@H](C(=O)N[C@@H](CC(N)=O)C(=O)O)CSSC[C@H](NC(=O)[C@H](Cc1ccccc1)NC(=O)[C@H](C)N)C(=O)N[C@@H](Cc1c[nH]c3ccccc13)C(=O)N[C@@H](CC(N)=O)C(=O)N[C@@H](C(C)C)C(=O)N2
- Activity (Salmonella typhimurium [7]): Active
- Activity (Salmonella typhimurium [8]): inactive

Molecule: CC(C)[C@@H]1NC(=O)[C@H](C)NC(=O)[C@H](CC(N)=O)NC(=O)[C@H](CCCNC(=N)N)NC(=O)[C@H](Cc2ccc(O)cc2)NC(=O)[C@H](C(C)C)NC(=O)[C@@H]2CSSC[C@H](NC(=O)[C@H](C(C)C)NC(=O)[C@H](CCCNC(=N)N)NC1=O)C(=O)N[C@@H](Cc1cnc[nH]1)C(=O)N[C@@H](CCCNC(=N)N)C(=O)N[C@@H](CCCNC(=N)N)C(=O)N[C@H](C(=O)N[C@@H](CC(N)=O)C(=O)O)CSSC[C@H](NC(=O)[C@H](Cc1ccccc1)NC(=O)[C@H](C)N)C(=O)N[C@@H](Cc1c[nH]c3ccccc13)C(=O)N[C@@H](CC(N)=O)C(=O)N[C@@H](C(C)C)C(=O)N2
- MIC (Salmonella typhimurium [9]): 25 µM (≈ 64.2 µg/mL)
- Activity (Salmonella typhimurium [3]): 22.41 - 69.74%
- MIC (Salmonella typhimurium [4]): 0.78 µM (≈ 2 µg/mL)
- Survival (Salmonella typhimurium [6]): 2.3 ×10⁵ CFU/ml

Molecule: CC(C)[C@@H]1NC(=O)[C@H](C)NC(=O)[C@H](CC(N)=O)NC(=O)[C@H](CCCNC(=N)N)NC(=O)[C@H](Cc2ccc(O)cc2)NC(=O)[C@H](C(C)C)NC(=O)[C@@H]2CSSC[C@@H](NC(=O)[C@H](C(C)C)NC(=O)[C@@H](CCCNC(=N)N)NC1=O)C(=O)N[C@@H](Cc1cnc[nH]1)C(=O)N[C@H](CCCNC(=N)N)C(=O)N[C@@H](CCCNC(=N)N)C(=O)N[C@@H](C(=O)N[C@@H](CC(N)=O)C(=O)O)CSSC[C@H](NC(=O)[C@H](Cc1ccccc1)NC(=O)[C@H](C)NC(=O)[C@H](CCCNC(=N)N)NC(=O)[C@H](CCCNC(=N)N)NC(=O)[C@H](CCCNC(=N)N)NC(=O)[C@H](CCC(N)=O)NC(=O)[C@H](CCCNC(=N)N)NC(=O)[C@H](CCCNC(=N)N)NC(=O)[C@H](CCCCN)NC(=O)[C@H](CCCCN)NC(=O)[C@H](CCCNC(=N)N)NC(=O)CNC(=O)[C@@H](N)Cc1ccc(O)cc1)C(=O)N[C@@H](Cc1c[nH]c3ccccc13)C(=O)N[C@H](CC(N)=O)C(=O)N[C@@H](C(C)C)C(=O)N2
- Activity (Salmonella typhimurium [10]): Active
- Activity (Salmonella typhimurium [7]): Active
- Activity (Salmonella typhimurium [11]): Active
- Activity (Salmonella typhimurium [8]): inactive

- MIC (Salmonella typhimurium [4]): > 80 µM
Molecule: H-RRWQWR-OH

Molecule: CC(C)[C@@H]1NC(=O)[C@H](C)NC(=O)[C@H](CC(N)=O)NC(=O)[C@H](CCCNC(=N)N)NC(=O)[C@H](Cc2ccc(O)cc2)NC(=O)[C@H](C(C)C)NC(=O)[C@@H]2CSSC[C@H](NC(=O)[C@H](C(C)C)NC(=O)[C@H](CCCNC(=N)N)NC1=O)C(=O)N[C@@H](Cc1cnc[nH]1)C(=O)N[C@@H](CCCNC(=N)N)C(=O)N[C@@H](CCCNC(=N)N)C(=O)N[C@H](C(=O)N[C@@H](CC(N)=O)C(=O)O)CSSC[C@H](NC(=O)[C@H](Cc1ccccc1)NC(=O)[C@H](C)NC(=O)[C@H](CCCNC(=N)N)NC(=O)[C@H](CCCNC(=N)N)NC(=O)[C@H](CCCNC(=N)N)NC(=O)[C@H](CCC(N)=O)NC(=O)[C@H](CCCNC(=N)N)NC(=O)[C@H](CCCNC(=N)N)NC(=O)[C@H](CCCCN)NC(=O)[C@H](CCCCN)NC(=O)[C@H](CCCNC(=N)N)NC(=O)CNC(=O)[C@@H](N)Cc1ccc(O)cc1)C(=O)N[C@@H](Cc1c[nH]c3ccccc13)C(=O)N[C@@H](CC(N)=O)C(=O)N[C@@H](C(C)C)C(=O)N2
- Drug uptake [12]: 93.5%
- viability at 8 h, 100 µM [13]: 90.2%
- Drug uptake [14]: Not Active
- Drug uptake [15]: 99.8%
- Drug uptake [16]: Not Active
- Drug uptake [17]: 99.9%
- Drug uptake [18]: Not Active
- Drug uptake [19]: Active
- Drug uptake [20]: 8.3%
- Drug uptake [21]: Not Active
- Drug uptake [22]: Dose-dependent effect and Tde
- Drug uptake [23]: 99.9%

Molecule: CC(C)[C@@H]1NC(=O)[C@H](C)NC(=O)[C@H](CC(N)=O)NC(=O)[C@H](CCCNC(=N)N)NC(=O)[C@H](Cc2ccc(O)cc2)NC(=O)[C@H](C(C)C)NC(=O)[C@@H]2CSSC[C@H](NC(=O)[C@H](C(C)C)NC(=O)[C@H](CCCNC(=N)N)NC1=O)C(=O)N[C@@H](Cc1cnc[nH]1)C(=O)N[C@@H](CCCNC(=N)N)C(=O)N[C@@H](CCCNC(=N)N)C(=O)N[C@H](C(=O)N[C@@H](CC(N)=O)C(=O)O)CSSC[C@H](NC(=O)[C@H](Cc1ccccc1)NC(=O)[C@H](C)NC(=O)[C@H](CCCNC(=N)N)NC(=O)[C@H](Cc1c[nH]c3ccccc13)NC(=O)[C@H](CCC(N)=O)NC(=O)[C@H](Cc1c[nH]c3ccccc13)NC(=O)[C@H](CCCNC(=N)N)NC(=O)[C@@H](N)CCCNC(=N)N)C(=O)N[C@@H](Cc1c[nH]c3ccccc13)C(=O)N[C@@H](CC(N)=O)C(=O)N[C@@H](C(C)C)C(=O)N2
- Drug uptake [12]: 28.3%
- viability at 8 h, 100 µM [13]: 86.5%
- Drug uptake [14]: Not Active
- Drug uptake [15]: 57.2%
- Drug uptake [16]: Not Active
- Drug uptake [17]: 96.3%
- Drug uptake [18]: Not Active
- Drug uptake [19]: Active
- Drug uptake [20]: 17.9%
- Drug uptake [21]: Not Active
- Drug uptake [22]: Dose-dependent effect and Tde
- Drug uptake [23]: 70.9%

Molecule: CC(C)[C@@H]1NC(=O)[C@H](C)NC(=O)[C@H](CC(N)=O)NC(=O)[C@H](CCCNC(=N)N)NC(=O)[C@H](Cc2ccc(O)cc2)NC(=O)[C@H](C(C)C)NC(=O)[C@@H]2CSSC[C@@H](NC(=O)[C@H](C(C)C)NC(=O)[C@H](CCCNC(=N)N)NC1=O)C(=O)N[C@@H](Cc1cnc[nH]1)C(=O)N[C@@H](CCCNC(=N)N)C(=O)N[C@@H](CCCNC(=N)N)C(=O)N[C@H](C(=O)N[C@@H](CC(N)=O)C(=O)O)CSSC[C@H](NC(=O)[C@H](Cc1ccccc1)NC(=O)[C@H](C)NC(=O)[C@H](CCCNC(=N)N)NC(=O)[C@H](Cc1c[nH]c3ccccc13)NC(=O)[C@H](CCC(N)=O)NC(=O)[C@H](Cc1c[nH]c3ccccc13)NC(=O)[C@H](CCCNC(=N)N)NC(=O)[C@@H](N)CCCNC(=N)N)C(=O)N[C@@H](Cc1c[nH]c3ccccc13)C(=O)N[C@@H](CC(N)=O)C(=O)N[C@@H](C(C)C)C(=O)N2
- Activity (Salmonella typhimurium [7]): Active
- Activity (Salmonella typhimurium [11]): Active
- Activity (Salmonella typhimurium [8]): inactive
